Assay results published in patent publication US20110129508A1 (priority 2008, published 2011).
Entries after “also recorded” stand apart in the source; their conditions may differ. Where two headings read alike, the source gives them in different places.

What was measured:
[1] = test system: rat model of diabetic neuropathic pain; set-up: species or system rats; conditions: in vivo
[2] = test system: rat model of prostate bone cancer pain; assay: animal or person; type: in vivo, Male Wistar rats; conditions: for ED50: Rattus norvegicus
[3] = test system: streptozotocin-induced diabetic neuropathy model of neuropathic pain; conditions: rat, in vivo, ip, 2.5 mg/kg
[4] = rat, in vivo
[5] = male, Wistar (HsdBrlHan WIST), rat, in vivo, ip

SMILES | reversal of hyperalgesia [1] [%] | ED50 ([2]; ip) [mg/kg] | ED50 ([2]; read-out: ED50 Mean) [mg/kg] | reversal in hyperalgesia [3] | mean rest times [4] [s] | antinociception ([2]; rat, in vivo, ip) | reversal of hyperalgesia ([2]; rat, in vivo, ip, 5 mg/kg) [%] | maximum non-sedating dose [5] [mg/kg]
CCOC(=O)Nc1ccc(NCc2ccc(F)cc2)nc1N [flupirtine] | 8±8 | 3.32 | 3.32 | over 20% | 943.83 |  |  | 
CN1CC[C@]23c4c5ccc(O)c4O[C@H]2[C@@H](O)C=C[C@H]3[C@H]1C5 [morphine] |  | 0.735 | 0.735 |  |  | dose related antinociception; also recorded: dose related antinociceptive effects | 73 | 5
